Assay results as given in patent US8697694B2, “Substituted pyridine and pyrimidine derivatives and their use in treating viral infections” (priority 2008, dated 2014).

These compounds were tested on HCV replicon cells (assay: Cell-based HCV replicon assay (replicon RNA level by real time PCR, Taqman)). Conditions: HCV replicon cells, replicon RNA level by real time PCR, harvested day 3; read-out: EC90 (μM) range.
Experimental: Assays Cell-Based HCV Replicon Assay
To measure cell-based anti-HCV activity of the compounds of the present invention, replicon cells were seeded at 5000 cells/well in 96-well collagen I-coated Nunc plates in the presence of the compound of the invention. Various concentrations of a compound of the invention, typically in 10 serial 2-fold dilutions, were added to the assay mixture, the starting concentration of the compound ranging from 25 μM to 1 μM. The final concentration of DMSO was 0.5%, fetal bovine serum was 10%, in the assay media. Cells were harvested on day 3 by the addition of 1× cell lysis buffer (Ambion cat #8721). The replicon RNA level was measured using real time PCR (Taqman assay). The amplicon was located in 5B. The PCR primers were: 5B.2F, ATGGACAGGCGCCCTGA (SEQ. ID NO. 1); 5B.2R, […] (SEQ. ID NO. 2); the probe sequence was FAM-labeled CACGCCATGCGCTGCGG (SEQ. ID NO. 3). GAPDH RNA was used as endogenous control and was amplified in the same reaction as NS5B (multiplex PCR) using primers and VIC-labeled probe recommended by the manufacturer (PE Applied Biosystem). The real-time RT-PCR reactions were run on ABI PRISM 7900HT Sequence Detection System using the following program: 48′C for 30 min, 95° C. for 10 min, 40 cycles of 95° C. for 15 sec, 60° C. for 1 min. The ΔCT values (CT5B-CTGAPDH) were plotted against the concentration of test compound and fitted to the sigmoid dose-response model using GraphPad PRISM software. EC50 was defined as the concentration of inhibitor necessary to achieve ΔCT=1 over the projected baseline; EC90 the concentration necessary to achieve ΔCT=3.2 over the baseline. Alternatively, to quantitate the absolute amount of replicon RNA, a standard curve was established by including serially diluted T7 transcripts of replicon RNA in the Taqman assay. All Taqman reagents were from PE Applied Biosystems. Such an assay procedure was described in detail in e.g. Malcolm et al., Antimicrobial Agents and Chemotherapy 50: 1013-1020 (2006).
HCV Replicon assay data for compounds of the invention that were tested was obtained using the above method. Calculated EC90 values are reported for each compound in Table I as a falling within the following ranges: […]
For `Cc1nc(NCC2CC2)nc(N[C@@H]2C[C@H](C(C)O)[C@@H](O)[C@H]2O)c1-c1nc2ccccc2s1` (single isomer, unassigned) [Example 1647], the EC90 was 0.5 to 5 µM.

Same assay, conditions: Hepatitis C virus, 72 h, HCV replicon cells, harvested day 3, replicon RNA by real time PCR; given as number; read-out: EC90 (μM) range
In the case of `CCOc1cc2cc(-c3c(C)nc(N[C@H](C)c4ccc(C)cc4)nc3N[C@@H]3C[C@H](CO)[C@@H](O)[C@H]3O)oc2c(C)n1` [Example 40], the EC90 is reported as 0.15 µM.
`COCCNc1nc(C)c(-c2cc3cc(OC(C)C)nc(C)c3o2)c(N[C@@H]2C[C@H](CO)[C@@H](O)[C@H]2O)n1` [Example 37] showed an EC90 of 0.3 µM.
Work on `CCCOc1cc2cc(-c3c(C)nc(NCCOC)nc3N[C@@H]3C[C@H](CO)[C@@H](O)[C@H]3O)oc2c(C)n1` [Example 35] yielded an EC90 of 0.1 µM.
For `CCC(CC)Oc1cc2cc(-c3c(C)nc(NCC4CC4)nc3N[C@@H]3C[C@H](CO)[C@@H](O)[C@H]3O)oc2c(C)n1` [Example 44], the EC90 was > 25 µM.

Same assay, conditions: Hepatitis C virus, 72 h, HCV replicon cells, harvested day 3, replicon RNA by real time PCR; reported as range class; read-out: EC90 (μM) range
`Nc1ncc(-c2cc3ccncc3o2)c(N[C@@H]2C[C@H](CO)[C@@H](O)[C@H]2O)n1` [Example 113] showed an EC90 of 0.5 to 5 µM.
`CC1(C)O[C@@H]2[C@@H](CO)C[C@@H](Nc3nc(N)nc(Cl)c3-c3nc4ccccc4s3)[C@@H]2O1` [Example 184] was tested, and the EC90 was < 0.5 µM.
`CC(=O)OCCNc1nc(Cl)c(-c2nc3ccccc3s2)c(N[C@@H]2C[C@H](CO)[C@@H](O)[C@H]2O)n1` [Example 209] was tested, and the EC90 was < 0.5 µM.
In the case of `CN(C)c1ccc2nc(-c3c(Cl)nc(N)nc3N[C@@H]3C[C@H](CO)[C@@H](O)[C@H]3O)sc2c1` [Example 115], the EC90 is reported as > 5 µM.
For `OCCNc1nc(Cl)c(-c2nc3ccccc3s2)c(N[C@@H]2C[C@H](CO)[C@@H](O)[C@H]2O)n1` [Example 212], the EC90 was < 0.5 µM.
With `CCN(CC)c1nc(Cl)c(-c2nc3ccccc3s2)c(N[C@@H]2C[C@H](CO)[C@@H](O)[C@H]2O)n1` [Example 411] the EC90 was 0.5 to 5 µM.
`Cc1nc(NCC(F)(F)F)nc(N[C@@H]2C[C@H](CO)[C@@H](O)[C@H]2O)c1-c1nc2ccccc2s1` [Example 125] was tested, and the EC90 was < 0.5 µM.
In the case of `CN(C)c1nc(Cl)c(-c2nc3ccccc3o2)c(N[C@@H]2C[C@H](CO)[C@@H](O)[C@H]2O)n1` [Example 117], the EC90 is reported as 0.5 to 5 µM.
For `COCCCNc1nc(C)c(-c2nc3ccccc3s2)c(N[C@@H]2C[C@H](CO)[C@@H](O)[C@H]2O)n1` [Example 223], the EC90 was < 0.5 µM.
For `Cc1nc(NCC(F)F)nc(N[C@@H]2C[C@H](CO)[C@@H](O)[C@H]2O)c1-c1nc2ccccc2s1` [Example 215], the EC90 was < 0.5 µM.
`Nc1nc(Cl)c(-c2cscn2)c(N[C@@H]2C[C@H](CO)[C@@H](O)[C@H]2O)n1` [Example 161] was tested, and the EC90 was > 5 µM.
For `Nc1nc(Cl)c(-c2cc3cncnc3o2)c(N[C@@H]2C[C@H](CO)[C@@H](O)[C@H]2O)n1` [Example 402], the EC90 was > 5 µM.
With `OC[C@H]1C[C@@H](Nc2ncnc(Cl)c2-c2nc3ccccc3s2)[C@H](O)[C@@H]1O` [Example 118] the EC90 was > 5 µM.

Same assay, conditions: Hepatitis C virus, 72 h, HCV replicon cells, harvested on day 3, replicon RNA by real time PCR; calculated EC90 reported as range class; read-out: EC90 (μM) range
`OC[C@H]1C[C@@H](Nc2nc(NCc3ccccc3)nc(Cl)c2-c2nc3ccccc3s2)[C@H](O)[C@@H]1O` [Example 430] was tested, and the EC90 was < 0.5 µM.
With `COCCNc1nc(C)c(-c2cc3cc(C(F)(F)F)ncc3o2)c(N[C@@H]2C[C@H](CO)[C@H]3OC(C)(C)O[C@H]32)n1` [Example 135] the EC90 was > 5 µM.
In the case of `COc1cc2cc(-c3c(C)nc(NCc4ccccn4)nc3N[C@@H]3C[C@H](CO)[C@H]4OC(C)(C)O[C@H]43)oc2c(C)n1` [Example 349], the EC90 is reported as 0.5 to 5 µM.
For `COC(C)(C)CNc1nc(C)c(-c2nc3ccccc3s2)c(N[C@@H]2C[C@H](CO)[C@@H](O)[C@H]2O)n1` [Example 473], the EC90 was < 0.5 µM.
In the case of `CCc1cc2cc(-c3c(C)nc(NCc4nccs4)nc3N[C@@H]3C[C@H](CO)[C@H]4OC(C)(C)O[C@H]43)oc2cn1` [Example 341], the EC90 is reported as < 0.5 µM.
`C[C@H](Nc1nc(Cl)c(-c2nc3ccccc3s2)c(N[C@@H]2C[C@H](CO)[C@@H](O)[C@H]2O)n1)c1ccccc1` [Example 440] was tested, and the EC90 was 0.5 to 5 µM.
In the case of `Cc1nc(S(C)(=O)=O)nc(N[C@@H]2C[C@H](CO)[C@@H](O)[C@H]2O)c1-c1nc2ccccc2s1` [Example 324], the EC90 is reported as > 5 µM.
`Cc1nc(NCc2cccnc2)nc(N[C@@H]2C[C@H](CO)[C@H]3OC(C)(C)O[C@H]32)c1-c1nc2ccccc2s1` [Example 463] was tested, and the EC90 was < 0.5 µM.
With `CCCNc1nc(Cl)c(-c2nc3ccccc3s2)c(N[C@@H]2C[C@H](CO)[C@@H](O)[C@H]2O)n1` [Example 419] the EC90 was < 0.5 µM.
In the case of `Cc1ccc(CNc2nc(C)c(-c3nc4ccccc4s3)c(N[C@@H]3C[C@H](CO)[C@@H](O)[C@H]3O)n2)cc1` [Example 490], the EC90 is reported as < 0.5 µM.

Same assay, conditions: Hepatitis C virus, 72 h, HCV replicon cells, replicon RNA level by real time PCR (Taqman), harvested on day 3; calculated EC90 reported as range class; read-out: EC90 (μM) range
`COCCNc1nc(N)c(-c2nc3ccccc3s2)c(N[C@@H]2C[C@H](CO)[C@@H](O)[C@H]2O)n1` [Example 1302] showed an EC90 of 0.5 to 5 µM.
Work on `COc1ccccc1Nc1nc(C)c(-c2nc3ccccc3s2)c(N[C@@H]2C[C@H](CO)[C@@H](O)[C@H]2O)n1` [Example 1123] yielded an EC90 of 0.5 to 5 µM.
`Cc1nc(NCC2CC2)nc(N[C@@H]2C[C@H](CO)[C@@H](O)[C@@H]2O)c1-c1nc2ccccc2s1` [Example 1252] was tested, and the EC90 was > 5 µM.
`CCOCCCNc1nc(C)c(-c2nc3ccccc3s2)c(N[C@@H]2C[C@H](CO)[C@@H](O)[C@H]2O)n1` [Example 1041] showed an EC90 of 0.5 to 5 µM.
`Cc1nc(Nc2ccncc2)nc(N[C@@H]2C[C@H](CO)[C@@H](O)[C@H]2O)c1-c1nc2ccccc2s1` [Example 1051] showed an EC90 of 0.5 to 5 µM.
For `COCc1cc2cc(-c3c(C)nc(NCc4ccco4)nc3N[C@@H]3C[C@H](CO)[C@@H](O)[C@H]3O)oc2cn1` [Example 1108], the EC90 was < 0.5 µM.
In the case of `Cc1nc(NCC2CC2)nc(N[C@@H]2C[C@H](CO)[C@@H](O)[C@H]2O)c1-c1nc2ccccc2o1` [Example 528], the EC90 is reported as 0.5 to 5 µM.
`Cc1nc(NCC(C)(C)CO)nc(N[C@@H]2C[C@H](CO)[C@@H](O)[C@H]2O)c1-c1nc2cnccc2s1` [Example 1317] was tested, and the EC90 was < 0.5 µM.
Compound `Cc1cccc(Nc2nc(C)c(-c3nc4ccccc4s3)c(N[C@@H]3C[C@H](CO)[C@@H](O)[C@H]3O)n2)c1` [Example 1046] has an EC90 of 0.5 to 5 µM.
Work on `CCNC[C@H]1C[C@@H](Nc2nc(NCC(F)(F)F)nc(C)c2-c2nc3ccccc3s2)[C@H](O)[C@@H]1O` [Example 1018] yielded an EC90 of 0.5 to 5 µM.
For `Cc1nc(Nc2ccccc2OCc2ccccc2)nc(N[C@@H]2C[C@H](CO)[C@H]3OC(C)(C)O[C@H]32)c1-c1nc2ccccc2s1` [Example 1124], the EC90 was > 5 µM.

Same assay, conditions: Hepatitis C virus, 72 h, HCV replicon cells, replicon RNA level by real time PCR, harvested day 3; read-out: EC90 (μM) range
In the case of `CCCc1nccc2sc(-c3c(C)nc(N[C@H](C)C4CC4)nc3N[C@@H]3C[C@H](CN(C)S(C)(=O)=O)[C@@H](O)[C@H]3O)nc12` [Example 1389], the EC90 is reported as < 0.5 µM.
In the case of `Cc1nc(NCCc2ccc(Cl)c(Cl)c2)nc(N[C@@H]2C[C@H](CO)[C@@H](O)[C@H]2O)c1-c1nc2cnccc2s1` [Example 1914], the EC90 is reported as < 0.5 µM.
For `Cc1nc(NCC(F)(F)F)nc(N[C@@H]2CC[C@@H](O)[C@@]2(C)O)c1-c1nc2ccccc2s1` [Example 1702], the EC90 was 0.5 to 5 µM.
In the case of `COc1cc(CNc2nc(C)c(-c3nc4ccccc4s3)c(N[C@H]3C[C@@H](CO)[C@H](O)[C@@H]3O)n2)cc(OC)c1` [Example 1501], the EC90 is reported as 0.5 to 5 µM.
In the case of `Cc1nc(N[C@@H](c2ccsc2)C(F)(F)F)nc(N[C@@H]2C[C@H](CO)[C@@H](O)[C@H]2O)c1-c1nc2c(C)nccc2s1` [Example 1361], the EC90 is reported as < 0.5 µM.
In the case of `Cc1ccc([C@@H](C)Nc2nc(C)c(-c3nc4c(CC(C)C)nccc4s3)c(N[C@@H]3C[C@H](CO)[C@@H](O)[C@H]3O)n2)cc1` [Example 1372], the EC90 is reported as < 0.5 µM.
With `CCOc1cc2sc(-c3c(C)nc(NCC4CC4)nc3N[C@@H]3C[C@H](CO)[C@@H](O)[C@H]3O)nc2c(C)n1` [Example 1374] the EC90 was 0.5 to 5 µM.
In the case of `Cc1ccc([C@H](Nc2nc(C)c(-c3nc4c(C)nccc4s3)c(N[C@@H]3C[C@H](CO)[C@@H](O)[C@H]3O)n2)C2CC2)cc1` [Example 1362], the EC90 is reported as < 0.5 µM.
In the case of `Cc1nc(NCc2c(F)cccc2F)nc(N[C@@H]2CC[C@@H](O)[C@@]2(C)O)c1-c1nc2c(C)nccc2s1` [Example 1814], the EC90 is reported as < 0.5 µM.
With `Cc1nc(NC2CC2)nc(N[C@@H]2C[C@H](CO)[C@@H](O)[C@H]2O)c1-c1nc2c(CC(C)C)nccc2s1` [Example 1537] the EC90 was < 0.5 µM.
`Cc1nc(NCC(F)(F)F)nc(NC[C@@H]2CC2(CO)CO)c1-c1nc2ccccc2s1` [Example 1618] gave an EC90 of 0.5 to 5 µM.
`Cc1ccc([C@@H](C)Nc2nc(C)c(-c3nc4c(C)nccc4s3)c(N[C@@H]3C[C@H](CO)[C@@H](O)[C@H]3O)n2)cc1F` [Example 1358] was tested, and the EC90 was < 0.5 µM.
